Data from patent US10696615B2, “Prenylated hydroxystilbenes” (The University of Sydney, priority 2011, dated 2020).

Assays:
Type in all cases: cell-based, human
[1] = system: UACC-62; test: NCI in vitro cancer screen, Melanoma; conditions: UACC-62
[2] = system: PC-3; test: NCI in vitro cancer screen, Prostate Cancer; conditions: PC-3
[3] = system: SF-295; test: NCI in vitro cancer screen, CNS Cancer; conditions: SF-295
[4] = system: MOLT-4; test: NCI in vitro cancer screen, Leukemia; conditions: MOLT-4
[5] = system: A549/ATCC; test: NCI in vitro cancer screen, Non-Small Cell Lung Cancer
[6] = system: SN12C; test: NCI in vitro cancer screen, Renal Cancer
[7] = system: ADR-RES (NCI/ADR-RES); test: NCI in vitro cancer screen, Ovarian Cancer
[8] = system: MDA-MB-231 (MDA-MB-231/ATCC); test: NCI in vitro cancer screen, Breast Cancer; conditions: MDA-MB-231
[9] = system: SR; test: NCI in vitro cancer screen, Leukemia
[10] = system: RPMI-8226; test: NCI in vitro cancer screen, Leukemia; conditions: RPMI-8226
[11] = system: RXF-393; test: NCI in vitro cancer screen, Renal Cancer; conditions: RXF-393
[12] = system: SNB-75; test: NCI in vitro cancer screen, CNS Cancer; conditions: SNB-75
[13] = system: NCI-H460; test: NCI in vitro cancer screen, Non-Small Cell Lung Cancer; conditions: NCI-H460
[14] = system: M14; test: NCI in vitro cancer screen, Melanoma; conditions: M14
[15] = system: NCI-H322M; test: NCI in vitro cancer screen, Non-Small Cell Lung Cancer
[16] = system: HCT-15; test: NCI in vitro cancer screen, Colon Cancer; conditions: HCT-15
[17] = system: T-47D; test: NCI in vitro cancer screen, Breast Cancer
[18] = system: MALME-3M; test: NCI in vitro cancer screen, Melanoma
[19] = system: 786-0; test: NCI in vitro cancer screen, Renal Cancer; conditions: 786-0
[20] = system: HCC-2998; test: NCI in vitro cancer screen, Colon Cancer; conditions: HCC-2998
[21] = system: NCI-H522; test: NCI in vitro cancer screen, Non-Small Cell Lung Cancer; conditions: NCI-H522
[22] = system: HL-60 (TB); test: NCI in vitro cancer screen, Leukemia; conditions: HL-60 (TB)
[23] = system: UO-31; test: NCI in vitro cancer screen, Renal Cancer; conditions: UO-31
[24] = system: ACHN; test: NCI in vitro cancer screen, Renal Cancer
[25] = system: MDA-MB-435; test: NCI in vitro cancer screen, Melanoma; conditions: MDA-MB-435
[26] = system: A498; test: NCI in vitro cancer screen, Renal Cancer; conditions: A498
[27] = system: COLO 205; test: NCI in vitro cancer screen, Colon Cancer; conditions: COLO 205
[28] = system: SK-MEL-2; test: NCI in vitro cancer screen, Melanoma; conditions: SK-MEL-2
[29] = system: SK-OV-3; test: NCI in vitro cancer screen, Ovarian Cancer; conditions: SK-OV-3
[30] = system: K-562; test: NCI in vitro cancer screen, Leukemia; conditions: K-562
[31] = system: LOX IMVI; test: NCI in vitro cancer screen, Melanoma
[32] = Homo sapiens, read-out: LC50 (the source's name)

COc1cc(/C=C/c2cc(O)cc(OCC=C(C)C)c2)ccc1O [USYDS2, (E)-3-(3-methyl-2-butenyloxy)-4′,5-dihydroxy-3′-methoxystilbene]
GI50 ([1]; Homo sapiens): 3.73 µM | CC50 [1, 32]: 44.6 µM | TGI [1]: 15.9 µM | GI50 ([2]; Homo sapiens): 3.84 µM | CC50 [2, 32]: 65.8 µM | TGI [2]: 18.7 µM | GI50 ([3]; Homo sapiens): 3.94 µM | CC50 [3, 32]: 49.2 µM | TGI [3]: 14.7 µM | GI50 ([4]; Homo sapiens): 4.16 µM | CC50 [4, 32]: > 100 µM | TGI [4]: 28.3 µM | TGI [5]: 13.0 µM | GI50 ([5]; Homo sapiens): 3.28 µM | CC50 [5, 32]: 42.1 µM | TGI [6]: 18.8 µM | GI50 ([6]; Homo sapiens): 4.02 µM | CC50 [6, 32]: 60.2 µM | TGI ([7]; ADR-RES): 4.95 µM | GI50 ([7]; Homo sapiens, NCI/ADR-RES): 0.4 µM | CC50 ([7]; Homo sapiens, NCI/ADR-RES, read-out: LC50 (the source's name)): > 100 µM | GI50 ([8]; Homo sapiens): 0.25 µM | CC50 [8, 32]: 15.7 µM | TGI [8]: 2.10 µM | TGI [9]: >100 µM | GI50 ([9]; Homo sapiens): 0.54 µM | CC50 [9, 32]: > 100 µM | GI50 ([10]; Homo sapiens): 4.32 µM | CC50 [10, 32]: > 100 µM | TGI [10]: 52.8 µM | GI50 ([11]; Homo sapiens): 1.35 µM | CC50 [11, 32]: 23.6 µM | TGI [11]: 5.46 µM | GI50 ([12]; Homo sapiens): 2.14 µM | CC50 [12, 32]: 55.8 µM | TGI [12]: 10.3 µM | GI50 ([13]; Homo sapiens): 2.47 µM | CC50 [13, 32]: 58.7 µM | TGI [13]: 10.9 µM | GI50 ([14]; Homo sapiens): 0.53 µM | CC50 [14, 32]: 49.4 µM | TGI [14]: 15.4 µM | TGI [15]: 22.7 µM | GI50 ([15]; Homo sapiens): 9.64 µM | LC50 (50% lethal concentration) ([15]; Homo sapiens): 52.3 µM | TGI [16]: 17.8 µM | GI50 ([16]; Homo sapiens): 0.76 µM | CC50 [16, 32]: 97.3 µM | TGI [17]: 33.6 µM | GI50 ([17]; Homo sapiens, T47D): 5.66 µM | CC50 ([17]; Homo sapiens, T47D, read-out: LC50 (the source's name)): > 100 µM | GI50 ([18]; Homo sapiens, Malme-3M): 1.88 µM | CC50 ([18]; Homo sapiens, Malme-3M, read-out: LC50 (the source's name)): 94.9 µM | TGI ([18]; MALME-3M): 26.2 µM | TGI [19]: 15.9 µM | GI50 ([19]; Homo sapiens): 3.55 µM | LC50 (50% net cell kill) ([19]; Homo sapiens): 98.8 µM | TGI [20]: 17.3 µM | GI50 ([20]; Homo sapiens): 4.61 µM | CC50 [20, 32]: 46.4 µM | GI50 ([21]; Homo sapiens): 1.14 µM | CC50 [21, 32]: 14.7 µM | TGI [21]: 3.57 µM | TGI [22]: 9.77 µM | GI50 ([22]; Homo sapiens): 1.34 µM | CC50 [22, 32]: > 100 µM | GI50 ([23]; Homo sapiens): 2.6 µM | CC50 [23, 32]: 48.9 µM | TGI [23]: 16.9 µM | TGI [24]: 17.5 µM | GI50 ([24]; Homo sapiens): 3.76 µM | CC50 [24, 32]: 52.1 µM | GI50 ([25]; Homo sapiens): 0.34 µM | CC50 [25, 32]: 41.3 µM | TGI [25]: 11.0 µM | TGI [26]: 23.8 µM | GI50 ([26]; Homo sapiens): 10.3 µM | CC50 [26, 32]: 55.2 µM | TGI [27]: 31.7 µM | GI50 ([27]; Homo sapiens): 17.3 µM | CC50 [27, 32]: 57.9 µM | GI50 ([28]; Homo sapiens): 1.25 µM | LC50 ([28]; Homo sapiens): 41.6 µM | TGI [28]: 9.59 µM | GI50 ([29]; Homo sapiens): 3.69 µM | CC50 [29, 32]: 38.9 µM | TGI [29]: 14.9 µM | GI50 ([30]; Homo sapiens, K562): 0.48 µM | CC50 ([30]; Homo sapiens, K562, read-out: LC50 (the source's name)): > 100 µM | TGI [30]: >100 µM | TGI [31]: 19.4 µM | GI50 ([31]; Homo sapiens): 1.56 µM | CC50 [31, 32]: > 100 µM
